In US20200347136A1, “CONSTRAINED CYCLIC PEPTIDES AS INHIBITORS OF THE CD2:CD58 PROTEIN-PROTEIN INTERACTION FOR TREATMENT OF DISEASES AND AUTOIMMUNE DISORDERS” (Board of Supervisors for the University of Louisiana System, priority 2019, published 2020):
Entries after “also recorded” stand apart in the source; their conditions may differ.

Key:
[1] = target: T1, HER2 ECD protein (domains I-IV) (Homo sapiens, UniProt P04626); test: SPR binding to immobilized HER2 ECD; conditions: analyte over immobilized HER2 ECD
T1 construct: immobilizing HER2 ECD protein (domains I-IV, 620 amino acids)
T1 sequence (P04626 23-652 limits assumed): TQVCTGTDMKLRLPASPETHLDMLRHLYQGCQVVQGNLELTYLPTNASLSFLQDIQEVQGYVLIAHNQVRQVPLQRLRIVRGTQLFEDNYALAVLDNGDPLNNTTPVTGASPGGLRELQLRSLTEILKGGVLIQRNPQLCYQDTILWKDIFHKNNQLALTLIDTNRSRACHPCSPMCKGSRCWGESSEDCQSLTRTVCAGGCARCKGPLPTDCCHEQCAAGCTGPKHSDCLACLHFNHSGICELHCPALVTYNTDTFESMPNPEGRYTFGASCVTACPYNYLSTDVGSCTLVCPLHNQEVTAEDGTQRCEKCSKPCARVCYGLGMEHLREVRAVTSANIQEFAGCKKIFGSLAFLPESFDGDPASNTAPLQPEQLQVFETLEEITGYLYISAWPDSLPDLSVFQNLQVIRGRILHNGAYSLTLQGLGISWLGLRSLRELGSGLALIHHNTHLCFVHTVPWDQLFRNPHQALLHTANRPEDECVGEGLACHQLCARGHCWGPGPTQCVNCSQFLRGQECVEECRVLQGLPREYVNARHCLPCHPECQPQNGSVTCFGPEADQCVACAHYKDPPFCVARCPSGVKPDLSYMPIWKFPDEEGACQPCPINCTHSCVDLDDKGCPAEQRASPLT
Protocol: Binding affinities were obtained by global fitting analysis of the titration curve to the 1:1 Langmuir interaction model, and the Kd value was calculated.

A549 cells = conditions: read-out: IC50 A549 (HER2+); antiproliferative activity
Protocol: (§1) Antiproliferative activity of grafted cyclic peptides. Antiproliferative activity of the designed grafted peptides was evaluated in different HER2-overexpressing cancer cell lines as well as HER2 negative cancer cell lines.
(§2) Table 1. […] Single letter amino acid code was used for peptide sequence. Lower case letters refer to D amino acids and capital letters refer to L amino acids. Chirality of Anapa was indicated with R and S configuration in italics. Antiproliferative activity of peptides in cancer cell lines are given as IC50 in μM. Disulfide bonds between the cysteines are underlined.

BT-474 cells = conditions: read-out: IC50 BT-474 (HER2+); antiproliferative activity
Protocol: as §1, §2

Calu-3 cells = conditions: read-out: IC50 Calu-3 (HER2+); antiproliferative activity
Protocol: as §1, §2

MCF-7 cells = conditions: read-out: IC50 MCF-7 (HER2−); antiproliferative activity
Protocol: as §1, §2

MCF-10A cells = test: Cell Titer-Glo antiproliferative assay, MCF-10A; format: cell-based; conditions: antiproliferative activity, non-cancerous breast epithelial cell line
Protocol: as §1, §2

[2] = test system: phosphorylation of HER2 and Akt; test: Western blot of HER2 and Akt phosphorylation, A549 cells; format: cell-based
Protocol: Binding to ECD protein at different concentrations. Kinetics of association and dissociation are shown. Inset saturation curve for binding. […] EGFR was immobilized on CM5-chip and HER2 was added as analyte. Binding of HER2 to EGFR is shown in red. […] Control represents cells without the peptide and without one of the antibodies (B & E). […] Control represents cells without the peptide and without one of the antibodies (F). […] Nucleus was stained with DAPI. III) Quantification of PLA assay fluorescence intensity. 3-6 different fields were chosen, and intensity of red fluorescence was measured using ImageJ software. […] Scale 20 μm. Magnification 40×. *p<0.05, ** p<0.01. Mean±SEM. […] The visualization of GAPDH was used to ensure equal sample loading in each lane. […] II) Quantification of Western blot images using densitometry. *p<0.05 *** P<0.001. Mean±SEM.
The phosphorylation of HER2 was measured by the p-HER2 monoclonal antibody. […] Lapatinib, an EGFR and HER2 kinase dual inhibitor were used as a positive control.

[3] = thermal stability by circular dichroism and MALDI-TOF; format: physicochemical; conditions: CD and mass spectrum, 25-75° C., in solution
Protocol: To confirm further, a mass spectrum of SFTI-G5 was obtained from the solution used to record the CD spectrum at different temperatures. Freeze-dried samples of different temperatures were analyzed via MALDI-TOF mass spectrometry.

[4] = disulfide bond stability, CD spectrum with dithiothreitol; format: physicochemical; conditions: presence versus absence of dithiothreitol
Calu-3 xenograft tumors = test: Calu-3 xenograft model of lung cancer in nude mice; format: in vivo
Protocol: 5×10^6 Calu-3 cells suspended in serum-free medium were subcutaneously inoculated in left flank region of mice to induce lung cancer (Foxn1-nude). Peptide (8 mg/kg) was administered via intratumoral injection three times a week after 10 days, Pertuzumab was injected with a loading dose of 12 mg/kg and then 6 mg/kg as maintenance dose intraperitonially once a week, Trastuzumab and pertuzumab combination was injected at a loading dose of 12 mg/kg and then 6 mg/kg as maintenance dose once a week. […] For comparison, pertuzumab (up triangle, blue) and trastuzumab and pertuzumab combination (down triangle, red) also shown (with standard errors for n=6). […] C) PPI inhibition assessed by PLA on tumor tissue sample. […] Tumor sections were homogenized, and protein was extracted and subjected to Western blot. […] (** p<0.01). Mean±SEM.
HER2 dimerization inhibitors such as pertuzumab and trastuzumab and pertuzumab combinations were also administered as control groups (FIG. 11A). […] During the course of the experiment, the tumor size in the control xenograft group without any treatment continued to increase, reaching a diameter of ˜9 mm in 28 days (FIG. 11B).
To evaluate the phosphorylation of HER2 protein, Western blot analysis was performed on frozen tumor samples.

T cells (splenocytes) = test: immunogenicity, flow cytometry T-cell proliferation (Ki-67) in primed BALB/c mice; format: in vivo; conditions: BALB/c mice primed 6 mg/kg; splenocytes with 5 μM peptide, 48 h
Protocol: SFTI-G5 is not immunogenic in mice. Molecules that are not endogenous to the body can trigger cellular responses when administered. […] Ki-67 is a proliferation marker of nuclear protein and has been used to measure specific T-cell responses. […] The animals were sacrificed on the 13th day, and splenocytes were harvested and cultured in vitro from both control and primed groups, either in the presence or absence of the peptide. Concanavalin A (5 μg/mL), an antigen-independent mitogen known to induce T-cell proliferation, was used as a positive control.

[5] = test system: A549 Red-FLuc lung tumors; test: experimental metastasis model of lung cancer, A549 Red-FLuc cells

Compound	SPR response on HER2 ECD [1]	IC50 (A549 cells) [nM]	IC50 (BT-474 cells) [nM]	IC50 (Calu-3 cells) [nM]	IC50 (MCF-7 cells) [nM]	IC50 (MCF-10A cells) [nM]	total HER2 protein levels [2]	phosphorylation of Akt ([2]; 1 μM, 40 h, vs control)	phosphorylation of HER2 kinase ([2]; 1 μM, 40 h, vs control)	thermal stability [3]	CD spectrum on addition of DTT [4]	tumor growth (Calu-3 xenograft tumors; Calu-3 xenograft, SFTI-G5 8 mg/kg intratumoral thrice a week, antibodies 12 then 6 mg/kg once a week)	tolerability, body weight and clinical observations (Calu-3 xenograft tumors; SFTI-G5 monotherapy dosing schedule)	EGFR:HER2 dimerization in tumor sections (PLA) (Calu-3 xenograft tumors; vs control tumor sample)	HER2 phosphorylation in tumor samples (Western blot) (Calu-3 xenograft tumors; vs vehicle treatment)	immune response: Ki-67 expression in CD3+ subsets (T cells (splenocytes))	rate of tumor growth, total flux (p/s) ([5]; 6 mg/kg i.v. twice a week, vs vehicle)	H&E histology of lungs: enlarged hyperchromatic nuclei, eosinophilic cytoplasm ([5]; vs vehicle control)
NCCCC[C@H](N)C(=O)NC(CC(=O)N[C@@H](Cc1ccccc1)C(=O)O)c1cccc2ccccc12 (stereo partly drawn) [Control, H2N-K(X)F-OH]	no SPR response was recorded																	
CC[C@H](C)[C@@H]1NC(=O)[C@H](CCCNC(=N)N)NC(=O)C[C@@H](c2cccc3ccccc23)NC(=O)[C@@H]2CSSC[C@H](NC(=O)C[C@@H](c3cccc4ccccc34)NC(=O)[C@H](CCCNC(=N)N)NC(=O)[C@@H]3CCCN3C(=O)[C@@H]3CCCN3C1=O)C(=O)N[C@@H](Cc1ccccc1)C(=O)N1CCC[C@H]1C(=O)N[C@@H](CC(=O)O)C(=O)N[C@@H](CC(=O)O)C(=O)N[C@@H](Cc1ccccc1)C(=O)N2 [SFTI-G5, Cyclo(C(S-X)RIPPR(S-X)CFPDDF)]		369	280	73	25600 ± 1460	> 50000	no significant change in total HER2 protein levels	significantly inhibited the phosphorylation of Akt	significantly decreases the phosphorylation of HER2 kinase	stable at 75 °C; also recorded: stable up to 75 °C	sharp change in CD spectrum	delay in tumor growth that was significant compared to control; also recorded: delayed tumor growth	well-tolerated	markedly diminished signals from dimerization	significant inhibition of HER2 phosphorylation	did not show any significant immune response; also recorded: non-immunogenic	decreased; also recorded: significant reduction in tumor growth	there were less
